Test system: larvae of the mustard beetle (Phaedon cochleariae)
Assay: Phaedon Larvae Test
Type: in vivo
Details: 1000 ppm, cabbage leaves dipped
Protocol: Phaedon Larvae Test • Solvent: 30 parts by weight of dimethylformamide • Emulsifier: 1 part by weight of alkylaryl polyglycol ether To produce a suitable preparation of active compound, 1 part by weight of active compound is mixed with the stated amount of solvent and emulsifier, and the concentrate is diluted with emulsifier-containing water to the desired concentration. Cabbage leaves (Brassica oleracea) are treated by being dipped into the preparation of active compound of the desired concentration and are populated with larvae of the mustard beetle (Phaedon cochleariae) while the leaves are still moist.

Row | Compound | Kill rate in % after 7 d [%]
1 | Cc1ccsc1C1CCC(c2c(F)cccc2F)=N1 (stereo not drawn) [drawing 87] | 100
2 | Fc1cccc(F)c1C1=NC(c2ccc(-c3cccc(OC(F)(F)F)c3)s2)CC1 (stereo not drawn) [drawing 88] | 100
3 | Fc1cccc(F)c1C1=NC(c2cc(-c3ccc(OC(F)(F)F)cc3)cs2)CC1 (stereo not drawn) [drawing 89] | 100

Test system: Meloidogyne incognita
Assay: Meloidogyne Test
Type: in vivo
Details: 20 ppm, nematicidal action by formation of galls on lettuce roots
Protocol: • Solvent: 30 parts by weight of dimethylformamide • Emulsifier: 1 part by weight of alkylaryl polyglycol ether
To produce a suitable preparation of active compound, 1 part by weight of active compound is mixed with the stated amount of solvent and emulsifier, and the concentrated is diluted with water to the desired concentration.
Vessels are filled with sand, solution of active compound, Meloidogyne incognita egg/larvae suspension and lettuce seeds. The lettuce seeds germinate and the plants develop. On the roots galls are formed.
After the desired period of time, the nematicidal action is determined in % by the formation of galls. 100% means that no galls have been found; 0% means that the number of galls on the treated plants corresponds to that of the untreated control.

Row | Compound | Kill rate in % after 14 d [%]
4 | Fc1cccc(F)c1C1=NC(c2ccc(-c3cccc(OC(F)(F)F)c3)s2)CC1 (stereo not drawn) [drawing 85] | 98

Test system: caterpillars of the army worm (Spodoptera frugiperda)
Assay: Spodoptera frugiperda Test
Type: in vivo
Details: 500 ppm, cabbage leaves dipped
Protocol: Spodoptera frugiperda Test
• Solvent: 30 parts by weight of dimethylformamide. • Emulsifier: 1 part by weight of alkylaryl polyglycol ether
To produce a suitable preparation of active compound, 1 part by weight of active compound is mixed with the stated amount of solvent and emulsifier, and the concentrate is diluted with emulsifier-containing water to the desired concentration.
Cabbage leaves (Brassica oleracea) are treated by being dipped into the preparation of active compound of the desired concentration and are populated with caterpillars of the army worm (Spodoptera frugiperda) while the leaves are still moist.
After the desired period of time, the kill in % is determined. 100% means that all caterpillars have been killed; 0% means that none of the caterpillars have been killed.

Row | Compound | Kill rate in % after 7 d [%]
5 | Fc1cccc(F)c1C1=NC(c2cc3sc(-c4ccc(OC(F)(F)F)cc4)cc3s2)CC1 (stereo not drawn) [drawing 91] | 100
6 | Fc1cccc(F)c1C1=NC(c2ccc(Cl)nc2)CC1 (stereo not drawn) [drawing 96] | 100

Same assay, conditions: 1000 ppm, cabbage leaves dipped

Row | Compound | Kill rate in % after 7 d [%]
7 | Fc1cccc(F)c1C1=NC(c2ccc(-c3cccc(OC(F)(F)F)c3)s2)CC1 (stereo not drawn) [drawing 92] | 100
8 | Fc1cccc(F)c1C1=NC(c2cc(Br)cs2)CC1 (stereo not drawn) [drawing 93] | 100
9 | Fc1cccc(F)c1C1=NC(c2cc(-c3cccc(OC(F)(F)F)c3)cs2)CC1 (stereo not drawn) [drawing 94] | 100
10 | Fc1cccc(F)c1C1=NC(c2cc(-c3ccc(OC(F)(F)F)cc3)cs2)CC1 (stereo not drawn) [drawing 95] | 100

Test system: not listed separately
Assay: logP determination by HPLC (reversed-phase C 18), EEC Directive 79/831 Annex V.A8
Type: physicochemical
Details: pH 2.3
Protocol: The stated logP values were determined in accordance with EEC Directive 79/831 Annex V.A8 by HPLC (High Performance Liquid Chromatography), using a reversed-phase column (C 18). Temperature: 43° C.
In the acidic range, the determination was carried out at pH 2.3 using the mobile phases 0.1% aqueous phosphoric acid and acetonitrile; linear gradient from 10% acetonitrile to 90% acetonitrile.
In the neutral range, the determination was carried out at pH 7.5 using the mobile phases 0.01 molar aqueous phosphate buffer solution and acetonitrile; linear gradient from 10% acetonitrile to 90% acetonitrile.
Calibration was carried out using unbranched alkan-2-ones (having 3 to 16 carbon atoms) with known logP values (determination of the logP values by the retention times using linear interpolation between two successive alkanones).

Row | Compound | chromatographic logP
11 | Fc1cccc(F)c1C1=NC(c2ccc(Cl)nc2)CC1 (stereo not drawn) [Example 9, 2-(6-chloro-3-pyridinyl)-5-(2,6-difluorophenyl)-3,4-dihydro-2H-pyrrole] | 1.93

Same assay, conditions: pH 2.3; HPLC, 0.1% aqueous phosphoric acid/acetonitrile; 43° C.; read-out: log P (pH 2.3)

Row | Compound | chromatographic logP
12 | CC(C)(C)OC(=O)NC(CCC(=O)c1c(F)cccc1F)c1cccs1 (stereo not drawn) [II-2] | 4.48
13 | CC(C)(C)OC(=O)NC(CCC(=O)c1c(F)cccc1F)c1sccc1Cl (stereo not drawn) [II-3] | 4.28

Same assay, conditions: reversed-phase C18 HPLC column; pH 2.3; HPLC, 0.1% aqueous phosphoric acid/acetonitrile; 43° C.; read-out: log P (pH 2.3)

Row | Compound | chromatographic logP
14 | Fc1cccc(F)c1C1=NC(c2ccc(Br)s2)CC1 (stereo not drawn) [Example 1, 2-(5-bromo-2-thienyl)-5-(2,6-difluorophenyl)-3,4-dihydro-2H-pyrrole] | 3.45
15 | Fc1cccc(F)c1C1=NC(c2cccs2)CC1 (stereo not drawn) [Example 2] | 1.95
16 | Fc1cccc(F)c1C1=NC(c2sccc2Cl)CC1 (stereo not drawn) [Example 3] | 3.34
17 | Cc1ccsc1C1CCC(c2c(F)cccc2F)=N1 (stereo not drawn) [Example 4] | 2.34
18 | Fc1cccc(F)c1C1=NC(c2cc3ccccc3s2)CC1 (stereo not drawn) [Example 5] | 3.11
19 | Fc1cccc(F)c1C1=NC(c2cc(Br)cs2)CC1 (stereo not drawn) [Example 8, 2-(4-bromo-2-thienyl)-5-(2,6-difluorophenyl)-3,4-dihydro-2H-pyrrole] | 3.41
20 | Fc1cccc(F)c1C1=NC(c2ccc(-c3ccc(OC(F)(F)F)cc3)nc2)CC1 (stereo not drawn) [Example 10, 5-[5-(2,6-difluorophenyl)-3,4-dihydro-2H-pyrrol-2-yl]-2-[4-(trifluoromethoxy)phenyl]pyridine] | 3.5
21 | Fc1cccc(F)c1C1=NC(c2ccc(-c3ccc(OC(F)(F)F)cc3)s2)CC1 (stereo not drawn) [Example 11, 5-(2,6-difluorophenyl)-2-{5-[4-(trifluoromethoxy)phenyl]-2-thienyl}-3,4-dihydro-2H-pyrrole] | 5.16
22 | Fc1cccc(F)c1C1=NC(c2ccc(-c3cccc(OC(F)(F)F)c3)s2)CC1 (stereo not drawn) [Example 12, 5-(2,6-difluorophenyl)-2-{5-[3-(trifluoromethoxy)phenyl]-2-thienyl}-3,4-dihydro-2H-pyrrole] | 4.84
23 | Fc1cccc(F)c1C1=NC(c2cc(-c3cccc(OC(F)(F)F)c3)cs2)CC1 (stereo not drawn) [Example 13, 5-(2.6-difluorophenyl)-2-{4-[3-(trifluoromethoxy)phenyl]-2-thienyl}-3,4-dihydro-2H-pyrrole] | 4.08
24 | Fc1cccc(F)c1C1=NC(c2cc(-c3ccc(OC(F)(F)F)cc3)cs2)CC1 (stereo not drawn) [Example 14, 5-(2,6-difluorophenyl)-2-{4-[4-(trifluoromethoxy)phenyl]-2-thienyl}-3,4-dihydro-2H-pyrrole] | 4.66
25 | CC(C)(C)OC(=O)NC(CCC(=O)c1c(F)cccc1F)c1ccc(Br)s1 (stereo not drawn) [II-1, tert-butyl 1-(5-bromo-2-thienyl)-4-(2,6-difluorophenyl)-4-oxobutylcarbamate] | 4.29
26 | Cc1ccsc1C(CCC(=O)c1c(F)cccc1F)NC(=O)OC(C)(C)C (stereo not drawn) [II-4] | 4.27
27 | CC(C)(C)OC(=O)NC(CCC(=O)c1c(F)cccc1F)c1cc2ccccc2s1 (stereo not drawn) [II-5] | 4.2
28 | O=C(/C=C/c1cc(Br)cs1)c1c(F)cccc1F [XVIII-1, 3-(4-bromo-2-thienyl)-1-(2,6-difluorophenyl)-2-propen-1-one] | 3.78
29 | O=C(/C=C/c1ccc(Cl)nc1)c1c(F)cccc1F [XVIII-2, 3-(6-chloro-3-pyridinyl)-1-(2,6-difluorophenyl)-2-propen-1-one] | 2.87

The next lines start with the values.

Row | chromatographic logP | Compound
30 | 3 | [N-]=[N+]=NC(CCC(=O)c1c(F)cccc1F)c1cc(Br)cs1 (stereo not drawn) [III-1, 4-azido-4-(4-bromo-2-thienyl)-1-(2,6-difluorophenyl)-1-butanone]
31 | 3.33 | [N-]=[N+]=NC(CCC(=O)c1c(F)cccc1F)c1ccc(Cl)nc1 (stereo not drawn) [III-2, 4-azido-4-(6-chloro-3-pyridinyl)-1-(2,6-difluorophenyl)-1-butanone]
32 | 4.78 | [N-]=[N+]=NC(CCC(=O)c1c(F)cccc1F)c1ccc(-c2ccc(OC(F)(F)F)cc2)nc1 (stereo not drawn) [III-3, 4-azido-1-(2,6-difluorophenyl)-4-{6-[4-(trifluoromethoxy)phenyl]-3-pyridinyl}-1-butanone]
33 | 3.03 | CC(C)(C)OC(=O)N1C(=O)CCC1c1ccc(Br)s1 (stereo not drawn) [IX-1, tert-butyl 2-(5-bromo-2-thienyl)-5-oxo-1-pyrrolidinecarboxylate]
34 | 2.39 | CC(C)(C)OC(=O)N1C(=O)CCC1c1cccs1 (stereo not drawn) [IX-2]
35 | 2.65 | Cc1ccsc1C1CCC(=O)N1C(=O)OC(C)(C)C (stereo not drawn) [IX-4]
36 | 3.03 | CC(C)(C)OC(=O)N1C(=O)CCC1c1cc2ccccc2s1 (stereo not drawn) [IX-5]
37 | 1.62 | O=C1CCC(c2ccc(Br)s2)N1 (stereo not drawn) [XI-1, 5-(5-bromo-2-thienyl)-2-pyrrolidinone]
38 | 1.03 | O=C1CCC(c2cccs2)N1 (stereo not drawn) [XI-2]
39 | 1.41 | O=C1CCC(c2sccc2Cl)N1 (stereo not drawn) [XI-3]
40 | 1.33 | Cc1ccsc1C1CCC(=O)N1 (stereo not drawn) [XI-4]
41 | 1.73 | O=C1CCC(c2cc3ccccc3s2)N1 (stereo not drawn) [XI-5]
42 | 3 | O=C(CCC(Cl)c1cc(Br)cs1)c1c(F)cccc1F (stereo not drawn) [XV-1, 4-(4-bromo-2-thienyl)4-chloro-1-(2,6-difluorophenyl)-1-butanone]
43 | 3.37 | O=C(CCC(Cl)c1ccc(Cl)nc1)c1c(F)cccc1F (stereo not drawn) [XV-2, 4-(6-chloro-3-pyridinyl)-4-chloro-1-(2,6-difluorophenyl)-1-butanone]
44 | 4.88 | O=C(CCC(Cl)c1ccc(-c2ccc(OC(F)(F)F)cc2)nc1)c1c(F)cccc1F (stereo not drawn) [XV-3, 4-chloro-1-(2,6-difluorophenyl)4-{6-[4-(trifluoromethoxy)phenyl]-3-pyridinyl}-1-butanone]
45 | 4.14 | O=C(c1c(F)cccc1F)C1CC1c1cc(Br)cs1 (stereo not drawn) [XVII-1, [2-(4-bromo-2-thienyl)cyclopropyl](2,6-difluorophenyl)methanone]
46 | 2.92 | O=C(c1c(F)cccc1F)C1CC1c1ccc(Cl)nc1 (stereo not drawn) [XVII-2, [2-(6-chloro-3-pyridinyl)cyclopropyl](2,6-difluorophenyl)methanone]
47 | 4.4 | O=C(c1c(F)cccc1F)C1CC1c1ccc(-c2ccc(OC(F)(F)F)cc2)nc1 (stereo not drawn) [XVII-3, (2,6-difluorophenyl)(2-{6-[4-(trifluoromethoxy)phenyl]-3-pyridinyl}cyclopropyl)methanone]

Same assay, conditions: reversed-phase C18 HPLC column; pH 7.5; HPLC, 0.01 molar aqueous phosphate buffer/acetonitrile; 43° C.; read-out: log P (pH 7.5)

Row | chromatographic logP | Compound
48 | 2.77 | CC(C)(C)OC(=O)N1C(=O)CCC1c1sccc1Cl (stereo not drawn) [IX-3]
